The assay deals with pyramidal cell to SST-IN synapses in the prefrontal cortex. Briefly: Ex vivo whole-cell electrophysiology, eEPSCs recorded from SST-INs in prefrontal cortex slices. It is filed as cell-based, mouse. The source says: Shown in Figure A are representative traces of eEPSCs recorded from SST-INs in response to 5-pulse stimulation with baseline in black, illustrating the characteristic facilitating nature of pyramidal cell (PYR) to SST-IN synapses.
Transgenic mice (both male and female) expressing tdTomato fluorescent protein in SST-INs were used in this study. They were generated by crossing female homozygous SST-Cre (Sst^tm2.1(cre)Zjh/J, Stock #: 013044, Jackson Laboratories) with male homozygous Ai9 mice (B6;Cg-Gt(Rosa)-26Sor^tm9(CAG‑tdTomato)Hze/J, Stock #: 007909, Jackson Laboratories). All animals were group housed with food and water available ad libitum, kept under a 12 h light/dark cycle with lights on from 6:00 AM to 6:00 PM, and were used for experiments during the light phase. All of the experimental procedures were approved by the Vanderbilt University Animal Care and Use committee and followed the guidelines set forth by the Guide for the Care and Use of Laboratory Animals. […] Whole cell recordings were made from visually identified, fluorescence-labeled SST-INs in layer V of PFC slices under the upright microscope. […] Excitatory postsynaptic currents (EPSCs) were recorded from layer V SST-INs at a holding potential of −80 mV and evoked by electrical stimulation (100 μs duration, applied every 15 s) through a concentric bipolar stimulating electrode placed around 100–150 μm from the recorded cell. The holding potential of −80 mV under voltage clamp is closed to the calculated reversal potential of Cl^– and thus the EPSCs recorded in the present studies had minimal GABAA-mediated component. Electrical stimulation applied near the recorded cell in the cortex presumably activates the local neurons preferentially. […] Data were analyzed using Clampfit 10 (Molecular Devices), Excel (Microsoft), and Prism (GraphPad Software), and presented as mean ± SEM. […]

Data on one compound can be found in article PMC12333015, “Profiling the Impact of mGlu7/Elfn1 Protein Interactions on the Pharmacology of mGlu7 Allosteric Modulators” (ACS Chemical Neuroscience, 2025).

Turning to `O=C(Nc1ccc(Oc2ccc(Cl)cn2)c(Cl)c1)c1ccccn1` [VU0422288], for the setting “10 μM VU0422288 alone, compared to baseline”, the “effect on eEPSC amplitude” value is on record as “no change in eEPSC amplitude”. Moreover, where the note is “30 μM L-AP4 + 10 μM VU0422288, compared to L-AP4 alone”, the “effect on eEPSCs of combination with L-AP4” value was “further depression of eEPSCs”.
